From patent US12017975B2, “Myc-Max inhibitor compound therapeutics for cancer treatment, methods and uses associated therewith” (THE UNIVERSITY OF BRITISH COLUMBIA, priority 2018, dated 2024)
Where two headings read alike, the source gives them in different places.

Columns and labels:
[1] = tested on: LNCaP cells; test: LNCaP cell viability (PrestoBlue); assay type: cell-based; conditions: Homo sapiens, 96 hours, 0-25 μM, read-out: IC50 LNCaP cell proliferation / viability
Description: (§1) LNCaP were plated at 5000 cells per well in RPMI 1640 containing 5% CSS in a 96-well plate, treated with test compounds (0-25 μM) for 96 hours. Cell density was measured using the PrestoBlue™ assay according to the manufacturer's protocol. The percentage of cell survival was normalized to the cell density of control wells treated by vehicle. Viability of Myc-negative […] cells was done similarly but in DMEM supplemented with 5% CSS.
(§2) The effect of hit compounds on Myc-driven cell proliferation was evaluated by measuring the cell viability of LNCaP cells after treatment with increasing concentrations of compounds.

[2] = tested on: Myc-Max/UBE2C downstream pathway; test: UBE2C promoter luciferase reporter assay in 22rv1 cells; assay type: cell-based; conditions: Homo sapiens, 25 μM
Description: (§3) Cell transfection was performed using TransIT-2020™ transfection reagents according to the manufacturer's instructions (Mirus™). LNCaP cells were plated at 10000 cells per well and treated for 1 day with the indicated concentration of compound. Myc reporter activity was measured using the Cignal Myc Reporter Assay Kit™ from Qiagen™ (#336841) according to the manufacturer's instructions. For the UBE2C reporter assay, 22rv1 cells were plated at 10000 cells per well in 96-well plates in RPMI media supplemented with 5% charcoal-stripped serum (CSS) and treated for 1 day with 1 μM, 10 μM and 25 μM of compound.
Myc inhibition was recently reported to reduce levels of the constitutively active androgen receptor splice variant AR-V7 in 22rv1 cells. […] The dose-dependent reduction of luciferase levels by the identified hits indicates a Myc-related reduction of AR-V7 level in the cells (see TABLE 1). […] The AR-V7 reduction with the hits was confirmed by Western blot (FIG. 2B).

[3] = biological target: T1, Myc-Max interaction (Homo sapiens, UniProt P01106); test: Mammalian two-hybrid assay in PC3 cells; assay type: cell-based; conditions: various concentrations
T1 construct: expressed in transfected cells; host or cells: PC3 cells
Description: Full lengths Myc and Max were cloned in pBIND and pACT plasmids (CheckMate™, Promega™), respectively. PC3 cells in RPMI 1640 supplemented with 5% FBS were seeded in 96-well plates at 5,000 cells/well. After 24 hours, cells were transfected with 15 ng of pACT-Max, 19.5 ng of pBIND-Myc, and 13.6 ng of the reporter plasmid PG5-luciferase. After 24 hours, cells were treated with various concentrations of the tested inhibitors. Cells were lysed the next day, and the luminescence signal was measured after adding 50 μL of luciferase assay reagent (Promega™). Each measurement was done in 4 replicates with biological replicates of 3. Luciferase levels corresponding to Myc-Max interactions were measured and normalized to a control provided by the commercial kit to discard non-specific effect due to toxicity or direct luciferase inhibition.
The effect of inhibitors of Myc-Max interaction was studied by using a mammalian two hybrid assay. Full lengths Myc and Max were cloned in pBIND and pACT plasmids (CheckMate™, Promega™), respectively. Luciferase levels corresponding to Myc-Max interactions were measured and normalized to a control provided by the commercial kit to discard non-specific effect due to toxicity or direct luciferase inhibition.

[4] = Cell viability of Myc negative (c-Myc knockout) HO15.19 cells; assay type: cell-based; conditions: rat, HO15.19 cells (c-Myc knockout, Myc-negative); 25 μM; read-out: % inhibition of Myc negative HO15.19 cells (cytotoxicity)
Description: as §1, §2

[5] = biological target: T2, Myc-Max complex (Homo sapiens, UniProt P01106+P61244); test: Biolayer interferometry of Myc-Max binding to biotinylated E-box DNA; conditions: for Myc-Max interaction with immobilized E-box DNA: 500 μM compound (FIG. 3C); for BLI binding: TABLE 2
T2 construct: GST tagged Myc (residues 368-454); Histidine tagged Max (residues 23-102); made in house; host or cells: E. coli BL21-DE3
Description: Histidine tagged Max (residues 23-102) and GST tagged Myc (residues 368-454) were overexpressed in E. coli BL21-DE3 cells. Cells were co-lyzed in lysis buffer (20 mM Tris pH 8, 500 mM NaCl, 5% glycerol, 10 mM imidazole, 8 mM BME, 2.1 mM PMSF). After sonication and centrifugation, the complex was first purified by using a Ni-NTA affinity resin. After overnight dialysis to remove the imidazole, the protein sample was applied to a size exclusion chromatography equilibrated with (20 mM Tris pH 8, 150 mM NaCl, 5% glycerol, 0.2 mM TCEP). Fractions containing equal amount of Myc and Max on SDS PAGE were collected and used for the binding assay. The presence of both proteins was validated by Western blot using a specific antibody of each protein (Max (h2) Sc-8011 and c-Myc (9E10) Sc-40, Santa Cruz Biotechnology™)
The direct interaction between biotinylated E-box oligo ([…]) immobilized on a streptavidin biosensor and a purified Myc-Max complex (0.05 mg/ml) was quantified by BLI using OctetRED (ForteBio™). The DNA was first bound to the super-streptavidin sensors over 1000 sec at 25° C. The sensors were next moved into wells containing the reaction buffer (20 mM Tris pH 8, 150 mM NaCl, 5% glycerol, 0.2 mM TCEP, 5% dimethylsulfoxide) for measuring the baseline and next into the Myc-Max complex alone or in presence of the tested inhibitors to study the association of the complex to the DNA.
Direct Binding and disruption of protein-DNA interaction. To study the direct effect of our hit compounds VPC-70063 and VPC-70067 on the interaction between Myc-Max heterodimer and the DNA, we used Bio-Layer Interferometry (BLI, ForteBio™). This technique is a label-free technology allowing the measurement of direct interactions between two partners, one immobilized on a sensor and the other one present in a solution. We applied this technology to study the disruption of the interaction between a biotinylated E-box oligo immobilized on a streptavidin biosensor and a purified Myc-Max complex in presence of our compounds. Therefore, histidine-tagged Max (residues 23-102) and GST tagged Myc (residues 368-454) were overexpressed and co-purified. The fraction containing equal amount of Myc and Max was collected and used for the binding assay (FIG. 3B). The presence of both proteins was validated by Western blot using a specific antibody of each protein. […] Additionally, we tested the ability of our best compound VPC-70063 to disrupt the interaction of MYC/MAX with DNA in a dose dependent manner.

[6] = tested on: Myc-Max transcriptional activity; test: Cignal c-Myc luciferase reporter assay in LNCaP cells; assay type: cell-based; conditions: Homo sapiens
Description: as §3
Compounds were subjected to experimental evaluation using the commercially available transcriptional assay Cignal c-Myc luciferase reporter assay in LNCaP cells. […] A transiently transfected Myc-driven luciferase reporter allowed the monitoring of Myc-regulated signal in LNCaP upon treatment with the in silico identified compounds.

[7] = tested on: LNCaP cells; test: PARP cleavage (apoptosis) by Western blot in LNCaP cells; assay type: cell-based; conditions: for PARP effect: TABLE 2, LNCaP cells
Description: After 48 hours of treatment with Myc compounds, LNCaP cells were lysed, and protein sample preparation followed by Western blotting were performed. Blots were incubated with primary antibodies against c-Myc, PARP (Sigma™ 084M4766V), PARP cleaved-Asp214 (Sigma™ SAB4500487) and β-Actin (Sigma™ A2066) overnight at 4° C., followed by appropriate peroxidase-conjugated secondary antibodies. β-actin served as an internal control. Visualization of the immunocomplexes was done by an enhanced chemiluminescence detection system (Millipore™) followed by exposure to X-ray films.
Apoptosis. Myc inhibition induces cell death by cell cycle arrest and apoptosis. Cleavage of PARP-1 by caspases is considered a hallmark of apoptosis and so we measured the ability of compounds to induce PARP cleavage after treatment.

[8] = tested on: HO15.19 cells; test: Cell viability of Myc negative (c-Myc knockout) HO15.19 cells; assay type: cell-based; conditions: Rattus norvegicus, HO15.19; read-out: % inhibition Myc K.O cells (12 uM)
Description: as §1, §2

[9] = LNCaP, 24 h, 25 μM, LNCaP cells, TABLE 1, read-out: Myc-Max transcriptional activity % inhibition (25 μM)
[10] = LNCaP, 25 μM, TABLE 3, read-out: % Inhibition 25 μM
[11] = LNCaP, TABLE 2, assay not named, values match Myc-Max transcriptional activity, read-out: IC50
[12] = LNCaP cells, dose response, Cignal c-Myc kit, read-out: IC50 Myc-Max transcriptional activity
[13] = LNCaP, 25 μM, TABLE 4, read-out: % Inhibition (25 μM)

T2 sequence (P01106 368-454): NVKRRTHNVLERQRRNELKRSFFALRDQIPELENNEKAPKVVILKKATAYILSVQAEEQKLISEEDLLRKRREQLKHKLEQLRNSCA
T2 sequence (P61244 23-102): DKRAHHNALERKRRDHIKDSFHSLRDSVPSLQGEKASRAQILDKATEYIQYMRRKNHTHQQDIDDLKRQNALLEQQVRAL
T1 sequence (P01106 whole entry): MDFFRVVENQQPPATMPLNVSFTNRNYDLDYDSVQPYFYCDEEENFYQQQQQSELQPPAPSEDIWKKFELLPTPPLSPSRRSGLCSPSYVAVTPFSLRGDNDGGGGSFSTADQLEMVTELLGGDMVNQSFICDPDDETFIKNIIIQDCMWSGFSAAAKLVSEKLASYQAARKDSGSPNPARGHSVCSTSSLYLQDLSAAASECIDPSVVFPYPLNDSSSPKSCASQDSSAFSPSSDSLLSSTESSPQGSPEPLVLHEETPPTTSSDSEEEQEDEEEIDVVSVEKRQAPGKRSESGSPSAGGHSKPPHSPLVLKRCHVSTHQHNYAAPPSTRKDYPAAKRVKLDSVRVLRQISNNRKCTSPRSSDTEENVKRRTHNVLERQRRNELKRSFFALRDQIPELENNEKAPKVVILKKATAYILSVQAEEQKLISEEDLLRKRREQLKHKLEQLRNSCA

| SMILES | inhibition at 25 µM [2] [%] | inhibition at 25 µM [6, 9] [%] | PARP effect [7] | inhibition at 12 µM [8] [%] | BLI binding [5] | inhibition at 25 µM [6, 10] [%] | IC50 [6, 11] [µM] | further results |
| --- | --- | --- | --- | --- | --- | --- | --- | --- |
| CCc1ccc(/C=C2\SC(=S)NC2=O)cc1 [Compound 10058-F4, [Z,E]-5-[4-ethylbenzylidine]-2-thioxothiazolidin-4-one, reference compound] | 70 | – | – | – | – | – | – | IC50 [1]: 18.3 µM |
| O=[N+]([O-])c1ccc(Nc2ccccc2-c2ccccc2)c2nonc12 [Compound 10074-G5, reference compound] | – | 88 | – | – | – | – | – | effect on Myc-Max interaction [3]: did not show any effect; inhibition at 96 h, 25 µM [4]: 37%; IC50 [1]: 8.7 µM; Myc-Max interaction with immobilized E-box DNA [5]: prevented from interacting with the immobilized DNA |
| NC(=O)c1ccsc1NC(=O)Nc1cccc(C(F)(F)F)c1 [VPC-70021] | 73 | 95 | nil | 0 | average | 95 | 10 | IC50 [6, 12]: 8.5 µM |
| CC(=O)Nc1ccc(Nc2cc(Cl)c(C(F)(F)F)cc2[N+](=O)[O-])cc1 [VPC-70033] | 51 | 81 | nil | – | weak | 81 | 10 | – |
| S=C(NCc1ccc(Cl)c(Cl)c1)Nc1cccnc1 [VPC-70053] | 50 | 73 | – | – | – | 73 | 11 | – |
| CN1C(=O)/C(=C\C=C\c2ccco2)SC1=S [VPC-70064] | 64 | 78 | – | – | – | – | – | inhibition at 25 µM [6, 13]: 78% |
| O=C1NC(=S)S/C1=C\c1ccccc1C(F)(F)F [VPC-70067] | 71 | 98 | good | 3 | strong | – | 22 | PARP cleavage / apoptosis ([7]; LNCaP cells, Western blot): inducing PARP cleavage; IC50 [1]: 11.1 µM; Myc-Max interaction with immobilized E-box DNA [5]: prevented from interacting with the immobilized DNA; inhibition at 25 µM [6, 13]: 98%; IC50 [6, 12]: 22.7 µM |
| CC(C)(C)[C@H]1CCc2sc(C(=O)N3CCC(C(N)=O)CC3)cc2C1 [VPC-70068] | 58 | 73 | average | – | – | 73 | – | – |
| O=C(NNc1ccc(C(F)(F)F)cc1[N+](=O)[O-])c1cnccn1 [VPC-70127] | – | – | strong | 19 | weak | – | 1 | inhibition at 25 µM ([6]; LNCaP, 25 μM, TABLE 6, read-out: % Inhibition 25 μM): 106% |
| O=C(NCc1cnn(Cc2ccccc2)c1)[C@@H]1COc2ccccc2O1 [VPC-70215] | – | – | weak | 29 | – | 101 | 20 | – |
| O=C(CCc1c[nH]c2ccccc12)Nc1nc2ccccc2[nH]1 [VPC-70223] | – | – | – | 40 | – | 103 | 10 | – |
| CC(C)C[C@H](NC(=O)C(Cc1ccccc1)NC(=O)CNC(=O)[C@H](C)NC(=O)[C@@H](N)Cc1ccc(O)cc1)C(=O)OCc1ccccc1 (some centres unmarked) [VPC-70413] | – | – | weak | – | weak | – | – | IC50 ([6]; LNCaP): 15 µM; inhibition at 25 µM ([6]; LNCaP, read-out: % Inhibition 25 μM): 114% |
